Patent US4980349A, “Sulphonamides derived from diarylmethanes, the processes for preparing them and pharmaceutical compositions containing them” (SANOFI, priority 1986, dated 1990)
Like-named read-outs stand apart in the source and are kept apart here.

Assays:
[1] = tested on: rat hind foot kaolin-induced arthritis; assay: Kaolin-induced arthritis test, second experiment, acute phase (volume of the foot at the 8th hour); format: in vivo; details: po, 8 h, Table IXa; for change in vivo at 50 mg/kg / change in vivo at 100 mg/kg / change in vivo at 25 mg/kg: 8th hour, read-out: percentage significant decrease in the volume of the treated foot; for ED50: foot volume, read-out: 50% active dose
Protocol: The […] of 0.05 ml of a sterile 10% strength suspension of kaolin into the metatarsal flexor sheath of the hind foot of a rat initially induces an oedematous reaction. An inflammatory arthritis then forms.
The early oedematous reaction appears from the first hour, and reaches its maximum between the fourth hour and the sixth hour. This is the manifestation of interest. The assessment of the volume of the foot enables the action of substances on the oedematous reaction to be studied. The measurements are carried out using a Giono and Chevilard plethysmometer.
The test products are administered orally (stomach tube) one hour before the injection of the kaolin.
In a second experiment, a more elaborate study was performed in order to ascertain the effect of the products, on the one hand on the acute phase of the inflammatory reaction (measured by the volume of the foot at the 8th hour), and on the other hand on the chronic phase (activity measured by the weight of the foot at the 12th hour).
As in the previous experiment, ketoprofen was used as the comparative product:
The results are expressed as a percentage significant decrease in the volume of the treated foot compared with the controls.

[2] = tested on: biosynthesis of leukotrienes C4 (LTC4), human polymorphonuclear leukocytes; assay: LTC4 production in human polymorphonuclear leukocytes; format: cell-based; details: Leukocyte, 0.25 h, ionophore A 23187 5 μM, 15 min, 37° C., read-out: IC50, inhibition of the production of LTC4
Protocol: Human polymorphonuclear Leukocytes are stimulated by calcium ionophore A 23187 (Calbiochem, 5 μM), in the presence or absence of the test products.
After 15 minutes' incubation at 37° C., assay of the leukotrienes C4 (LTC4) is performed radioimmunologically.
The results are expressed as IC50, the concentration producing 50% inhibition of the production of LTC4, by comparison with a control suspension which has not been incubated in the presence of the test products.

[3] = tested on: biosynthesis of leukotrienes B4 (LTB4), human polymorphonuclear leukocytes; assay: Biosynthesis of LTB4, isomers and oxidized metabolites in human polymorphonuclear leukocytes; format: cell-based; details: Leukocyte
Procedure, shortened: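 Human polymorphonuclear leukocytes (5×10^6, used within 6 h of blood draw) preincubated 10 min at 37° C. with test product at 40 μM in DMSO, stimulated with 10 μM ionophore A 23187 in PBS pH 7.4. LTB4, its isomers and oxidized metabolites quantified by HPLC at 269 nm against PGB2 internal standard, as % inhibition or % increase.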

5-lipoxygenase = assay: Production of LTB4 and 5-HETE by human leukocytes incubated with arachidonic acid; format: cell-based; details: ionophore A 23187 5 μM, arachidonic acid 10 μg/ml
Protocol: Human polymorphonuclear leukocytes suspended with arachidonic acid and stimulated by calcium ionophore produce leukotrienes B4 (LTB4).
The test consists in incubating fresh human leukocytes with arachidonic acid at a dose of 10 μg/ml to which a tracer dose of tritium-labelled arachidonic acid has been added. The leukocytes are stimulated with calcium ionophore A 23187 (Calbiochem, 5 μM) and the amount of 5-hydroxyeicosatetraenoic acid (5-HETE) and LTB4 produced is then assayed by HPLC.
5-HETE is the metabolite produced from arachidonic acid by 5-lipoxygenase, and from which LTB4 is produced by the action of an isomerase.
The results are expressed as an integration of the surface of the peak obtained in HPLC by comparison with that obtained with control leukocytes which have not been incubated with the test products.
The results in brackets are expressed as a percentage inhibition of the production of 5-HETE and LTB4.

thromboxane synthetase = assay: TXB2 production in human glomeruli (renal preparation model); format: cell-based; details: arachidonic acid 5 ug/ml
Protocol: Human glomeruli synthesize both thromboxanes, via thromboxane synthetase, and prostaglandins, via prostacyclin synthetase. The experiment consists in stimulating glomerular cells with arachidonic acid (5 ug/ml) and in assaying radioimmunologically the amount of thromboxane B2 (TXB2) and prostacyclin (PGI2) produced in the presence of increasing concentrations of test products (10^-6 M to 5×10^-5 M).
As for the previous model, the results are expressed as IC50 in comparison with a control suspension.

Oral LD50 in mice = details: mouse, in vivo, female Swiss CF mice, 20 g, 14 days observation, read-out: approximate oral LD50
Protocol: (§1) The compounds were suspended in a 3% strength solution of gum arabic so as to supply, in a volume of 2 ml for the rats, the equivalent of 50, 100, 200, 400 and 800 mg/kg, and, in a volume of 1 ml for the mice, 100, 200, 400, 800 and 1,600 mg/kg and, for 1573 and 1579, 3,200 mg/kg.
(§2) Gavage was performed by means of a metal tube, on batches of 5 animals for each series.
(§3) The animals were observed daily for 14 days.

[4] = tested on: rat hind foot kaolin-induced oedema; assay: Kaolin-induced arthritis test, first experiment (decrease in inflammation, foot volume); format: in vivo; details: 1 h before kaolin, Table IX, read-out: percentage decrease in the inflammation
Procedure, shortened: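 Kaolin (0.05 ml of sterile 10% suspension) injected into metatarsal flexor sheath of rat hind foot; compounds given orally by stomach tube 1 h before. Foot volume measured by plethysmometer during early oedema (maximal 4–6 h). Value is % decrease in inflammation versus controls, mean of 10 animals per dose.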

Oral LD50 in rats = details: rat, in vivo, male Wistar rats, 200-400 g, 14 days observation, read-out: approximate oral LD50
Protocol: as §1, §2, §3

[5] = second experiment, read-out: Percentage inhibition of LTB4 formation
[6] = first experiment, read-out: Isomers of LTB4: percentage inhibition (+ : percentage increase in the production)
[7] = first experiment, read-out: LTB4: percentage inhibition (+ : percentage increase in the production)
[8] = first experiment, read-out: Oxidized metabolites of LTB4: percentage inhibition (+ : percentage increase in the production)

Structure (SMILES)	IC50 [2] [nM]	IC50 (thromboxane synthetase) [nM]	change in vivo at 50 mg/kg [1] [%]	change in vivo at 100 mg/kg [1] [%]	ED50 [1] [mg/kg]	inhibition at 40 µM [3, 5] [%]	5-HETE, integration of the surface of the HPLC peak (5-lipoxygenase)	percentage inhibition of the production of 5-HETE (in brackets) (5-lipoxygenase) [%]	percentage inhibition of the production of LTB4 (in brackets) (5-lipoxygenase) [%]	change in vivo at 25 mg/kg [1] [%]	LTB4, integration of the surface of the HPLC peak (5-lipoxygenase)	inhibition at 40 µM [3, 6] [%]	inhibition at 40 µM [3, 7] [%]	inhibition at 40 µM [3, 8] [%]	LD50 at 336 h (Oral LD50 in mice) [mg/kg]	change in vivo at 25 mg/kg ([4]; 25 mg/kg oral) [%]	change in vivo at 50 mg/kg ([4]; 50 mg/kg oral) [%]	change in vivo at 100 mg/kg ([4]; 100 mg/kg oral) [%]	LD50 at 336 h (Oral LD50 in rats) [mg/kg]
O=C(O)CCCCCCCCCCNS(=O)(=O)c1ccc(Cl)cc1C(O)c1ccccc1Cl (stereo not drawn) [Compound 1796]	1700	3200	-55 ± 5	-60 ± 5	25	100	127			-50 ± 5	152								
O=C(O)CCCCCCCCCCNS(=O)(=O)c1ccc(Cl)cc1C(=O)c1ccccc1Cl [Compound 1574, 11-[2-(2-chlorobenzoyl)-4-chlorobenzenesulphonamido]undecanoic acid]	3000	5000	-65 ± 6	-68 ± 5	25	95				-60 ± 6		100	95	100	> 1600				
O=C(O)CCCCCCCCCCNS(=O)(=O)c1ccc(Cl)cc1C(=O)c1ccccc1 [Compound 1572, 11-(2-benzoyl-4-chlorobenzenesulphonamido)undecanoic acid]		7000										100	84	90	> 1600	-17	-26	-50	> 800

Further lines, with some results ahead:

IC50 [2] [nM]	IC50 (thromboxane synthetase) [nM]	Structure (SMILES)	change in vivo at 50 mg/kg [1] [%]	change in vivo at 100 mg/kg [1] [%]	ED50 [1] [mg/kg]	inhibition at 40 µM [3, 5] [%]	5-HETE, integration of the surface of the HPLC peak (5-lipoxygenase)	percentage inhibition of the production of 5-HETE (in brackets) (5-lipoxygenase) [%]	percentage inhibition of the production of LTB4 (in brackets) (5-lipoxygenase) [%]	change in vivo at 25 mg/kg [1] [%]	LTB4, integration of the surface of the HPLC peak (5-lipoxygenase)	inhibition at 40 µM [3, 6] [%]	inhibition at 40 µM [3, 7] [%]	inhibition at 40 µM [3, 8] [%]	LD50 at 336 h (Oral LD50 in mice) [mg/kg]	change in vivo at 25 mg/kg ([4]; 25 mg/kg oral) [%]	change in vivo at 50 mg/kg ([4]; 50 mg/kg oral) [%]	change in vivo at 100 mg/kg ([4]; 100 mg/kg oral) [%]	LD50 at 336 h (Oral LD50 in rats) [mg/kg]
3000	2600	O=C(O)CCCCCCCCCCCNS(=O)(=O)c1ccc(Cl)c(C(=O)c2ccccc2)c1 [Compound 1736, 12-(3-benzoyl-4-chlorobenzenesulphonamido)dodecanoic acid]	-50 ± 5	-55 ± 5	50	100	384	89.6	100										
1000	4400	O=C(O)CCCCCCCCCCNS(=O)(=O)c1ccc(Cl)cc1Cc1ccccc1Cl [Compound 1797]	-55 ± 5	-60 ± 5	25	100				-50 ± 5									
